Source: US20060009478A1, “Methods for the treatment of back pain” (priority 2003, published 2006)

Legend:
[1] = system: patients with moderate to severe chronic low back pain; test: AE days and average AE days of opioid associated AEs, low back pain study; conditions: ITT population
[2] = system: patients with moderate to severe chronic low back pain; test: Opioid-associated adverse events (constipation, nausea, vomiting, dizziness, somnolence, pruritus), low back pain study
[3] = (total days with AE)/(days on study drug)
[4] = AE stop date − AE start date + 1
[5] = event table, all occurrences, through the treatment period, ITT
[6] = event table, % of total number of events
[7] = through the treatment period, ITT population

## COc1ccc2c3c1O[C@H]1C(=O)CC[C@@]4(O)[C@@H](C2)N(C)CC[C@]314 [OXY QID, oxycodone]
[1]; [3]
  Average AE day for constipation, maximum: (1.13)
  Average AE day for constipation, mean: 0.24
  Average AE day for constipation, median: 0.05
  Average AE day for constipation, minimum: 0.00
  Average AE day for dizziness, maximum: 1.73
  Average AE day for dizziness, mean (SD): 0.14 (0.281)
  Average AE day for dizziness, median: 0.01
  Average AE day for dizziness, minimum: 0.00
  Average AE day for nausea, maximum: 2.00
  Average AE day for nausea, mean (SD): 0.14 (0.266)
  Average AE day for nausea, median: 0.03
  Average AE day for nausea, minimum: 0.00
  Average AE day for pruritus, maximum: 2.00
  Average AE day for pruritus, mean (SD): 0.23 (0.355)
  Average AE day for pruritus, median: 0.03
  Average AE day for pruritus, minimum: 0.00
  Average AE day for somnolence, maximum: 2.00
  Average AE day for somnolence, mean (SD): 0.31 (0.392)
  Average AE day for somnolence, median: 0.11
  Average AE day for somnolence, minimum: 0.00
  Average AE day for vomiting, maximum: 1.00
  Average AE day for vomiting, mean (SD): 0.02 (0.087)
  Average AE day for vomiting, median: 0.00
  Average AE day for vomiting, minimum: 0.00
[1]; [4]
  AE day for constipation, maximum: 114.00
  AE day for constipation, mean (SD): 17.59 (27.733)
  AE day for constipation, median: 3.00
  AE day for constipation, minimum: 0.00
  AE day for dizziness, maximum: 114.00
  AE day for dizziness, mean (SD): 8.59 (18.871)
  AE day for dizziness, median: 1.00
  AE day for dizziness, minimum: 0.00
  AE day for nausea, maximum: 118.00
  AE day for nausea, mean (SD): 8.16 (16.511)
  AE day for nausea, median: 2.00
  AE day for nausea, minimum: 0.00
  AE day for pruritus, maximum: 124.00
  AE day for pruritus, mean (SD): 15.92 (28.817)
  AE day for pruritus, median: 2.00
  AE day for pruritus, minimum: 0.00
  AE day for somnolence, maximum: 123.00
  AE day for somnolence, mean (SD): 21.53 (32.137)
  AE day for somnolence, median: 6.00
  AE day for somnolence, minimum: 0.00
  AE day for vomiting, maximum: 18.00
  AE day for vomiting, mean (SD): 1.09 (2.839)
  AE day for vomiting, median: 0.00
  AE day for vomiting, minimum: 0.00
[2]; [5]
  Number of events, all opioid-associated adverse events: 2549
  Number of events, all opioid-associated adverse events (by severity table): 2549
  Number of events, constipation: 576
  Number of events, constipation, mild: 430
  Number of events, constipation, moderate: 119
  Number of events, constipation, severe: 27
  Number of events, dizziness: 390
  Number of events, dizziness, mild: 314
  Number of events, dizziness, moderate: 63
  Number of events, dizziness, severe: 13
  Number of events, gastrointestinal disorders: 1143
  Number of events, gastrointestinal disorders (by severity table): 1143
  Number of events, nausea: 459
  Number of events, nausea, mild: 336
  Number of events, nausea, moderate: 93
  Number of events, nausea, severe: 30
  Number of events, nervous system disorders: 952
  Number of events, nervous system disorders (by severity table): 952
  Number of events, pruritus: 454
  Number of events, pruritus, moderate: 93
  Number of events, pruritus, severe: 13
  Number of events, skin and subcutaneous tissue disorders: 454
  Number of events, skin and subcutaneous tissue disorders (by severity table): 454
  Number of events, somnolence: 562
  Number of events, somnolence, mild: 390
  Number of events, somnolence, moderate: 133
  Number of events, somnolence, severe: 39
  Number of events, vomiting: 108
  Number of events, vomiting, mild: 61
  Number of events, vomiting, moderate: 26
  Number of events, vomiting, severe: 21
[2]; [6]
  % of all events, constipation, mild: 16.9%
  % of all events, constipation, moderate: 4.7%
  % of all events, constipation, severe: 1.1%
  % of all events, dizziness: 15.3%
  % of all events, dizziness, mild: 12.3%
  % of all events, dizziness, moderate: 2.5%
  % of all events, dizziness, severe: 0.5%
  % of all events, gastrointestinal disorders: 44.8%
  % of all events, gastrointestinal disorders (by severity table): 44.8%
  % of all events, nausea: 18.0%
  % of all events, nausea, mild: 13.2%
  % of all events, nausea, moderate: 3.6%
  % of all events, nausea, severe: 1.2%
  % of all events, nervous system disorders: 37.3%
  % of all events, nervous system disorders (by severity table): 37.3%
  % of all events, pruritus: 17.8%
  % of all events, pruritus, mild: 13.7%
  % of all events, pruritus, moderate: 3.6%
  % of all events, pruritus, severe: 0.5%
  % of all events, skin and subcutaneous tissue disorders: 17.8%
  % of all events, skin and subcutaneous tissue disorders (by severity table): 17.8%
  % of all events, somnolence: 22.0%
  % of all events, somnolence, mild: 15.3%
  % of all events, somnolence, moderate: 5.2%
  % of all events, somnolence, severe: 1.5%
  % of all events, vomiting: 4.2%
  % of all events, vomiting, mild: 2.4%
  % of all events, vomiting, moderate: 1.0%
  % of all events, vomiting, severe: 0.8%
[2]; [7]
  % of patients reporting constipation: 59.2%
  % of patients reporting constipation, maximum severity mild: 26.7%
  % of patients reporting constipation, maximum severity moderate: 20.9%
  % of patients reporting constipation, maximum severity severe: 11.7%
  % of patients reporting dizziness: 51.9%
  % of patients reporting dizziness, maximum severity mild: 29.6%
  % of patients reporting dizziness, maximum severity moderate: 16.0%
  % of patients reporting dizziness, maximum severity severe: 6.3%
  % of patients reporting gastrointestinal disorders: 77.7%
  % of patients reporting gastrointestinal disorders (by maximum severity table): 77.7%
  % of patients reporting nausea: 58.3%
  % of patients reporting nausea, maximum severity moderate: 22.3%
  % of patients reporting nausea, maximum severity severe: 11.7%
  % of patients reporting nervous system disorders: 79.1%
  % of patients reporting nervous system disorders (by maximum severity table): 79.1%
  % of patients reporting pruritus, maximum severity mild: 28.6%
  % of patients reporting pruritus, maximum severity moderate: 25.2%
  % of patients reporting pruritus, maximum severity severe: 6.3%
  % of patients reporting somnolence: 68.0%
  % of patients reporting somnolence, maximum severity mild: 23.3%
  % of patients reporting somnolence, maximum severity moderate: 29.1%
  % of patients reporting somnolence, maximum severity severe: 15.5%
  % of patients reporting vomiting, maximum severity mild: 9.7%
  % of patients reporting vomiting, maximum severity moderate: 7.8%
  % of patients reporting vomiting, maximum severity severe: 6.8%
  Number of patients reporting constipation: 122
  Number of patients reporting constipation, maximum severity mild: 55
  Number of patients reporting constipation, maximum severity moderate: 43
  Number of patients reporting constipation, maximum severity severe: 24
  Number of patients reporting dizziness: 107
  Number of patients reporting dizziness, maximum severity mild: 61
  Number of patients reporting dizziness, maximum severity moderate: 33
  Number of patients reporting dizziness, maximum severity severe: 13
  Number of patients reporting gastrointestinal disorders: 160
  Number of patients reporting gastrointestinal disorders (by maximum severity table): 160
  Number of patients reporting nausea: 120
  Number of patients reporting nausea, maximum severity mild: 50
  Number of patients reporting nausea, maximum severity moderate: 46
  Number of patients reporting nausea, maximum severity severe: 24
  Number of patients reporting nervous system disorders: 163
  Number of patients reporting nervous system disorders (by maximum severity table): 163
  Number of patients reporting pruritus: 124
  Number of patients reporting pruritus, maximum severity mild: 59
  Number of patients reporting pruritus, maximum severity moderate: 52
  Number of patients reporting pruritus, maximum severity severe: 13
  Number of patients reporting skin and subcutaneous tissue disorders: 124
  Number of patients reporting skin and subcutaneous tissue disorders (by maximum severity table): 124
  Number of patients reporting somnolence: 140
  Number of patients reporting somnolence, maximum severity mild: 48
  Number of patients reporting somnolence, maximum severity moderate: 60
  Number of patients reporting somnolence, maximum severity severe: 32
  Number of patients reporting vomiting: 50
  Number of patients reporting vomiting, maximum severity mild: 20
  Number of patients reporting vomiting, maximum severity moderate: 16
  Number of patients reporting vomiting, maximum severity severe: 14
